From patent publication US20170105999A1, “METHOD FOR TREATING DRUG RESISTANT CANCER” (NATIONAL YANG MING UNIVERSITY, priority 2014, published 2017)

How the values were obtained:
CL152 spheres [1] = assay: Apoptosis by flow cytometry; assay type: cell-based; details: 48 hours
CL97 [2] = assay: Tumor spheroid (sphere formation) assay; assay type: cell-based
A549 cells = assay: Transwell migration assay; assay type: cell-based; details: A549, 10 μM, 24 hours, vs DMSO controls
Excerpt: EMT also plays a critical role in the regulation of cancer sternness. EMT is characterized by enhanced cell migration and invasion.

MDA-MB-231 = assay: Tumor spheroid (sphere formation) assay; assay type: cell-based; details: MDA-MB-231, breast cancer
Mahlavu = assay: Tumor spheroid (sphere formation) assay; assay type: cell-based; details: liver cancer
SK-Hep 1 = assay: Tumor spheroid (sphere formation) assay; assay type: cell-based; details: SK-Hep 1, liver cancer
CL141 [3] = assay: Clonogenic assay; assay type: cell-based; details: CL141, adenocarcinoma
Excerpt: […] […] After the treatments, cells were washed with PBS, and the colonies were fixed with fix solution (methanol: acetic acid=3:1) and stained with 0.5% crystal violet in methanol. After removing the crystal violet carefully and rinse with tap water, the colonies were counted manually.

drug resistant cancer = assay: Clinical observation study, prochlorperazine added as maintenance therapy; details: after prochlorperazine treatment added to salvage therapy; patients
Method: All of the cases were treated according to clinical guideline. Life expectancy of all patients was less than 3 months.

CL152 [4] = assay: Tumor spheroid (sphere formation) assay
Method: (§4) In brief, single cells were plated in 6-well ultralow attachment plates (Coming Inc.) at a density of 2,000 cells/mL in tumor spheroid culture medium, DMEM/F12 supplemented with 1% N2 Supplement (Invitrogen), 10 ng/mL basic fibroblast growth factor (Sigma-Aldrich), 10 ng/mL epidermal growth factor (Invitrogen) with 1% penicillin/streptomycin (Invitrogen) at 37° C. in a humidified atmosphere of 95% air and 5% CO2. Cells were cultured twice per week. When passaged, tumor spheres were harvested. Spheroids were dissociated with TrypLE™ (Invitrogen). Spheroids cell counting using the Trypan Blue Exclusion method.

PANC-1 = assay: Tumor spheroid (sphere formation) assay; assay type: cell-based; details: PANC-1, pancreatic cancer
CL141 [5] = assay: Cytotoxicity, sulforhodamine B (SRB) assay; assay type: cell-based; details: read-out: IC50 for prochlorperazine metabolites, CL141 parental cells
Method: (§1) Cells were plated in 96-well plates at a density of 2000 cells per well in triplicate. The cells were treated on the third day (to ensure proper plating efficiency and vitality) to indicated agents for 48 hrs. […] Cytotoxicity was assessed using the sulforhodamine B (SRB) assay (23). Briefly, the medium was discarded, and the adherent cells were fixed by 100 μl of cold 10% trichioroacetic acid (w/v) in each well for 1 h at 4° C. After fixation, cells were stained with 100 μl/well of 0.4% (w/v, in 1% acetic acid) SRB solution for 30 min at room temperature, and then washed 5 times with 1% acetic acid. After air-drying, 100 μl of 10 mM Tris base was added to each well and the absorbance was read at 530 nm. Cytotoxicity is expressed as the percent of cells in drug treated wells relative to number of cells in the solvent only control (set to 100%). Each experiment was performed independently at least 2 times in triplicate and cytotoxicity is given as means ±SD.
(§2) A549, A549-ON, CL97, CL141, HCC827, and H441 were lung adenocarcinoma cell lines. CL152, H2170, and H226 were squamous cell carcinoma cell lines. Cell viability was determined by SRB assay. […] To determine whether side population (SP) cells, which represent a cell population with CSC characteristics, exist in NSCLC cell lines, we stained the cells with the fluorescent dye, Hoechst 33342, and analyzed the cells with flow cytometry.

CL152 [6] = assay: Cytotoxicity, sulforhodamine B (SRB) assay; assay type: cell-based; details: read-out: IC50 for prochlorperazine metabolites, CL152 parental cells
Method: as §1, §2

H226 = assay: Tumor spheroid (sphere formation) assay; assay type: cell-based; details: H226, squamous cell carcinoma
CL152 spheres [7] = assay: Cytotoxicity at sphere cells, Trypan Blue Exclusion method; assay type: cell-based; details: read-out: IC50 for prochlorperazine metabolites
CL152 [8] = assay: Aldefluor assay (ALDH-positive cell population)
[9] = test system: lung adenocarcinoma with EGFR-L858R mutation; assay: Case study, lung adenocarcinoma patient; assay type: in vivo, human; details: person; prochlorperazine along with pemetrexed; last followed-up CT
HCC827 = assay: Tumor spheroid (sphere formation) assay
Method: as §4

HT29 = assay: Tumor spheroid (sphere formation) assay; assay type: cell-based; details: HT29, colorectal adenocarcinoma
CL97 [10] = assay: Side population analysis by flow cytometry (Hoechst 33342); assay type: cell-based; details: CL97, adenocarcinoma
Method: (§3) Single-cell suspensions of cells were detached from dishes with Trypsin-EDTA (Invitrogen) and suspended at 1×10^6 cells/mL in Hank's balanced salt solution ([…]) supplemented with 3% fetal calf serum and 10 mM Hepes. These cells were then incubated at 37° C. for 90 minutes with 20 μg/mL Hoechst 33342 (Sigma Chemical, St. Louis, Mo.). […] After 90 minutes incubation with indicated drugs, the cells were centrifuged immediately for 5 minutes at 300 g and 4° C. and resuspended in ice-cold HBSS, The cells were kept on ice to inhibit efflux of the Hoechst dye, and 1 μg/mL propidium iodide (PI, BD) were added to discriminate dead cells. Finally, these cells were filtered through a 40 μm cell strainer (BD) to obtain single-suspension cells. Cell dual-wavelength analysis and purification were performed on a dual-laser FACS Vantage SE (BD). Hoechst 33342 can be excited at 355 nm UV light and emitted blue fluorescence with a 450/20 band-pass (BP) filter and red fluorescence with a 675 nm edge filter long-pass (EFLP). A 610 nm dichroic mirror short-pass (DMSP) was used to separate the emission wavelengths. PI-positive (dead) cells were excluded from the analysis.
as §2

NSCLC cells = assay: Side population analysis in NSCLC cells; assay type: cell-based; details: 48 hours of incubation at 2.5, 5 and 10 μM
Method: as §3, with “A 610 nm dichroic mirror short-pass (DMSP) was used to separate the emission wavelengths. PI-positive (dead) cells were excluded from the analysis.” left out
as §2, with “CL152, H2170, and H226 were squamous cell carcinoma cell lines.” left out

[11] = test system: CL97 (EGFR T790M and G719A mutations)
Method: In the first drug combination test, NCI-H441 cells expressing firefly luciferase (6×10^5 cells/injection) were injected into NOD/SCID mice (4-6 week of age) via the lateral tail vein for tumor establishment. […] Tumor burden from different groups were recorded by caliper. The change in tumor size was expressed as in fold change and plotted over time. Subsequently, we performed another set of drug combination test. […] For lung adenocarcinoma, the standard drug combination is pemetrexed and cisplatin whereas are used gemcitabine and cisplatin for lung squamous carcinoma. […] CL97 cancer cells (1.5×10^6 cells per injection) were injected subcutaneously into NOD/SCID mice to establish in viva tumor model.

CN1CCN(CCCN2c3ccccc3Sc3ccc(Cl)cc32)CC1 [prochlorperazine]
apoptosis (CL152 spheres [1]): dose-dependent increase in apoptosis | Sphere formation (CL97 [2]; CL97, adenocarcinoma): 0 to 2.5 µM | number of spheres (CL97 [2]; CL97 sphere cells, 1, 2.5, 5 and 10 μM, 48 hours, concentration-dependent): reduced the number of spheres | number of sphere cells, co-treatment (CL97 [2]; CL97 spheres, co-treatment with gefitinib vs gefitinib alone, 48 hours): significantly decreased the number of sphere cells | cell migration (A549 cells): significantly inhibited cell migration | Sphere formation (MDA-MB-231): 5 to 10 µM | Sphere formation (Mahlavu): >5 µM | Sphere formation (SK-Hep 1): >5 µM | Clonogenic assay (CL141 [3]): 5 to 10 µM | Median PFS (progression-free survival) (drug resistant cancer): 12.8 (7.0-20.1) months | Sphere formation (CL152 [4]; CL152, squamous cell carcinoma): 0 to 5 µM | combination effect with gemcitabine, sphere-formation assay (CL152 [4]; CL152 spheres, in combination with gemcitabine): synergistic effect | Sphere formation (PANC-1): 10 to 20 µM | IC50 (CL141 [5]): 10 to 20 µM | IC50 (CL152 [6]): 10 to 20 µM | Sphere formation (H226): 0 to 5 µM | IC50 (CL152 spheres [7]): < 5 µM | ALDH^+ CL152 population (CL152 [8]; CL152): decreased the ALDH^+ CL152 population in a dose-dependent manner | ALDH^+ assay (CL152 [8]; CL152, squamous cell carcinoma): <5 µM | tumor and pleural effusion on CT [9]: reduced significantly | sphere-forming ability (HCC827; HCC827): suppressed the sphere-forming ability | Sphere formation (HCC827; HCC827, adenocarcinoma): 5 to 10 µM | spheres number, combination with cisplatin (HCC827; HCC827, combination with cisplatin vs prochlorperazine or cisplatin alone): lower spheres number | Sphere formation (HT29): 0 to 2.5 µM | Side population (CL97 [10]): <5 µM | proportion of SP cells (NSCLC cells): dose-dependently decease | tumor growth, combined with gefitinib ([11]; 100 mg/kg gefitinib combined with 5 mg/kg prochlorperazine, p<0.001): significantly inhibitory effects of tumor growth | tumor growth, single agent ([11]; gefitinib 100 mg/kg or prochlorperazine 5 mg/kg alone): significantly inhibitory effects of tumor growth
